The results in this text go back to ChEMBL document CHEMBL3507680, “University of Dundee, Gates Library screen for HepG2 cell viability”.

A short description of this data set: Human HepG2 cell viability assay in 384 well format. Type of data set: toxicity, cell-based. Details: dose 125 nL, time 70.5 hour; cytotoxicity at 70.5 h: concentration not given beside the values. Conditions: HepG2 cells, read-out: Inhibition.

Consider `COCCC1(C(=O)O)CCCN(C(=O)c2cc(F)ccc2OC)C1` (configuration not stated), for which the cytotoxicity at 70.5 h is -10.6%.
The same measure for `CC(C)c1cc(C(=O)N2CCCC3(CCNC3)C2)no1` (configuration not stated): -3.49%; for `Cc1ccnc(CC(C)N(C)c2cc(C3CCNCC3)nc(C)n2)c1` (configuration not stated): -3%; for `O=C1N(CCc2ccccc2)CCCC12CCN(C(CO)CO)C2` (configuration not stated): -4.14%.
As to `COc1cccc(-n2cc(-c3ccnc(N[C@H](CO)C(C)C)n3)cn2)c1`, the cytotoxicity at 70.5 h is -2.44%.
As for `Cc1nc2cc(CNC(=O)C3CC(=O)N(C4CCCC4)C3)ccc2n1C` (configuration not stated), the cytotoxicity at 70.5 h was -7.58%.
To `CN(Cc1ccsc1)C(=O)C1CCC(=O)N(Cc2ccccn2)C1` (configuration not stated) belongs -5.03%; to `CCC(C(=O)N(C)C)N1CCC(c2nccn2Cc2cscn2)CC1` (configuration not stated), -10%; to `COCc1nc(N(C)C/C=C/c2ccccc2)c2cnn(C)c2n1`, -8.43%.
Turning to `CCCOCCN1CCN(c2ncnc3[nH]ccc23)CC1`, the cytotoxicity at 70.5 h is 1.69%.
For `OC[C@@H]1CCCN1c1ccc(-c2nc(CCc3ccccc3)no2)cn1`, the cytotoxicity at 70.5 h was -4.61%.
Take `COCC(C)NCc1nc(-c2ccc(C)cc2)c(-c2ccccn2)[nH]1` (configuration not stated): the cytotoxicity at 70.5 h was -1.81%.
With `O=C(NCCCOc1cccnc1)c1cn(Cc2ccccc2F)nn1`, the cytotoxicity at 70.5 h is -12.2%.
In the case of `CCc1csc(CNC2CCN(c3ccc(C)cc3)CC2)n1`, the cytotoxicity at 70.5 h amounted to 2.12%.
For the molecule `Cc1ccc(CNC(=O)CC2C(=O)NCCN2Cc2ccccc2C)s1` (configuration not stated), the cytotoxicity at 70.5 h was -0.0744%.
In the case of `Cn1ccnc1CN(CCO)Cc1ccc(C(F)(F)F)cc1`, the cytotoxicity at 70.5 h is -6.45%.
On to `Cc1noc(-c2ccc(N(C)Cc3nccs3)nc2)n1`, for which the cytotoxicity at 70.5 h was -9.04%.
For `CNS(=O)(=O)CCn1cc(-c2ccc(OC)c(OC)c2)nn1`, the cytotoxicity at 70.5 h is -4.16%.
`Cc1ccccc1-n1cc(CNc2ncnc3c2CCNCC3)cn1`: the cytotoxicity at 70.5 h is -13.6%.
With `Cc1nc(N(C)C)ncc1C(=O)NCCc1csc(-c2ccncc2)n1`, the cytotoxicity at 70.5 h is -12.4%.
For the molecule `CCc1cc(N[C@H](C(N)=O)[C@@H](C)CC)n2nccc2n1`, the cytotoxicity at 70.5 h is -1.65%.
The same measure for `CCCc1nnc(NC2CCN(C3CCCC3)CC2)o1`: -12.5%; for `COCc1ncc(CN2CCN(C)C(=O)C2C)cn1` (configuration not stated): -13.5%.
In the case of `Cc1cc(CN(C)C2CCN(c3cccc(-c4cscn4)c3)CC2)on1`, the cytotoxicity at 70.5 h is -2.57%.
To `COCCN(C)C(C(=O)O)c1ccc(C)c(C)c1` (configuration not stated) belongs 0.276%; to `CC[C@@H](CO)NC(=O)c1cccc(CCC(C)(C)O)c1`, -6.14%.
The same measure for `Cc1ccc2c(-c3nc4c([nH]3)CCNC4C(=O)O)cccc2n1` (configuration not stated): -0.899%; for `CNC(=O)C1CCN(c2nccc(CCC(F)(F)F)n2)C1` (configuration not stated): -3.72%.
With `O=C(O)c1ccccc1C1CCN(C2CCN(c3ccccc3)CC2)C1` (configuration not stated), the cytotoxicity at 70.5 h turned out to be 0.408%.
As to `CC(=O)Nn1c(C)cc(CN2CCC(C(=O)N3CCCC3)CC2)c1C`, the cytotoxicity at 70.5 h was -2.42%.
With `CC(C)N1CCCC(C(=O)N2CCN(c3nsc4ccccc34)CC2)C1` (configuration not stated), the cytotoxicity at 70.5 h stood at 1.52%.
Regarding `Cc1nc[nH]c1-c1c(-c2ccccc2)ncn1C1CCNC1` (configuration not stated), the cytotoxicity at 70.5 h is -1.75%.
Regarding `O=C(c1cnc(O)cn1)N1CCCC1c1nc2cc(F)ccc2[nH]1` (configuration not stated), the cytotoxicity at 70.5 h is -4.45%.
To `COCc1ccc(C(=O)N2CCN(CC=C(C)C)[C@@H]3CS(=O)(=O)C[C@@H]32)o1` belongs -0.472%; to `CCCn1cc(-c2cc(-c3cnc(OC)nc3)c(C#N)c(N)n2)c(C)n1`, -7.45%.
On to `CN(Cc1nccs1)C1CCN(c2ncccn2)CC1`, for which the cytotoxicity at 70.5 h is -8.38%.
As for `CCC(Nc1nc(C)nc2onc(C)c12)c1nc(C)c(C)s1` (configuration not stated), the cytotoxicity at 70.5 h stood at 24.7%.
As to `CSC(C)CCN1CCC(n2cc(C3CCCCC3)nn2)CC1` (configuration not stated), the cytotoxicity at 70.5 h is -1.37%.
For the molecule `c1cncc(OCCCNC2COc3ccccc3C2)c1` (configuration not stated), the cytotoxicity at 70.5 h is -3.91%.
In the case of `Cc1cccnc1[C@H](C)NC(=O)c1cccc(CC2CCNCC2)c1`, the cytotoxicity at 70.5 h was determined as 0.55%.
To `CCN(CC)C(=O)[C@@H]1C[C@@H](NC(=O)c2ccoc2)CN1C` belongs 25.9%.
Consider `Cn1ccc(NC(=O)CN2C[C@H]3CC[C@@H]2CN(S(C)(=O)=O)C3)n1`, for which the cytotoxicity at 70.5 h stood at 0.433%.
For the molecule `COCc1ncn(Cc2nc(-c3ccc(OC)c(OC)c3)oc2C)n1`, the cytotoxicity at 70.5 h amounted to 27.5%.
To `COc1cccc(Cl)c1-c1cc(CN)ccc1F` belongs -13.8%.
The same measure for `O=C(c1sccc1Cl)N1CCC(Cn2cc(CO)nn2)CC1`: -4.2%; for `Cc1ccc(N2CCC(C(O)Cc3ccccc3)CC2)nn1` (configuration not stated): 1.34%.
Take `NC(=O)COc1ccc(CN2CCC3(CC2)[C@H](O)C[C@@H]3O)cc1Cl`: the cytotoxicity at 70.5 h amounted to 19.2%.
On to `COCCN(Cc1cccs1)C(=O)c1ccc(=O)n(C)c1`, for which the cytotoxicity at 70.5 h was -10.2%.
The same measure for `O=C(Nc1ccc2scnc2c1)N1CCN([C@H]2CCCC[C@@H]2O)CC1`: -13.6%.
Take `Cc1n[nH]c(C)c1CCNC(=O)C1CCCN(CC(N)=O)C1` (configuration not stated): the cytotoxicity at 70.5 h was -1.91%.
In the case of `Cc1cnc(C)c(N2CCC(c3nccn3Cc3cscn3)CC2)n1`, the cytotoxicity at 70.5 h was 14.9%.
Regarding `CC(C)[C@@H]1CN(C(=O)c2ccc3c(c2)CCCO3)C[C@H]1NS(C)(=O)=O`, the cytotoxicity at 70.5 h is -1.93%.
The same measure for `CCCSc1ncc(CN2CCN(C)C(=O)C2C)cn1` (configuration not stated): 20.3%; for `Cc1[nH]c2ccc(CNc3cc(C(=O)NC(C)C)ccn3)cc2c1C`: -1.62%; for `Cc1cc(C(=O)N2CCC(CCn3cccn3)CC2)c(C)o1`: -5.22%.
For the molecule `COc1ccc(CN2CCC3(CCCN(C)C3=O)C2)c(OC)c1C` (configuration not stated), the cytotoxicity at 70.5 h is -10.1%.
With `O=C(c1cccc(S(=O)(=O)NCCCn2cccn2)c1)N1CCOCC1`, the cytotoxicity at 70.5 h was -1.43%.
Regarding `Cc1ncc(C(=O)N2CC[C@@]3(O)CCN(C(=O)N(C)C)C[C@H]3C2)cn1`, the cytotoxicity at 70.5 h is -12.2%.
`COc1nc2c(cc1C(=O)NCc1nc(CSC)no1)CCC2`: the cytotoxicity at 70.5 h was -5.89%.
The same measure for `c1ccc(C2CCCN(c3ncnc4c3CCNC4)CC2)cc1` (configuration not stated): 2.81%; for `CC(=O)N1CCc2[nH]cnc2C12CCN(C(=O)Cc1cccs1)CC2`: -9.66%.
The same measure for `Cc1nc(NC2CCS(=O)(=O)CC2)cc(C2CCCNC2)n1` (configuration not stated): -7.39%.
To `O=C(CCN1CCCCO1)NCCSc1cnn[nH]1` belongs -3.27%; to `CNc1ccc(C)cc1C(=O)N[C@H]1C[C@H]2CN(C)CCN2C1`, -13.3%.
As to `CCC(OC)C(=O)N1CCC2(CC1)c1nc[nH]c1CCN2S(C)(=O)=O` (configuration not stated), the cytotoxicity at 70.5 h stood at 32.6%.
Take `Cc1n[nH]c(CCC(=O)N2CCOC(Cc3ccc(F)cc3)C2)c1C` (configuration not stated): the cytotoxicity at 70.5 h amounted to 10.5%.
For `Cc1nc[nH]c1-c1nccn1-c1cccc(CN2CCCC2)c1`, the cytotoxicity at 70.5 h amounted to 13%.
Consider `CCOC(=O)CNC(=O)N1CCOC(Cc2ccc(OC)cc2)C1` (configuration not stated), for which the cytotoxicity at 70.5 h is -0.738%.
Take `CC(C)C1CN(S(=O)(=O)N(C)C)CCCN1Cc1ccc(F)cc1` (configuration not stated): the cytotoxicity at 70.5 h is 2.12%.
For the molecule `c1ccc(CCCC2CN(Cc3ncc[nH]3)CCO2)cc1` (configuration not stated), the cytotoxicity at 70.5 h was -6.86%.
`O=C(c1ccc(S(=O)(=O)NCc2ccon2)cc1)N1CCCCCC1`: the cytotoxicity at 70.5 h was -7.49%.
With `Cc1cccnc1[C@H](C)Nc1nc(-c2cccnc2)nc2c1CNC2`, the cytotoxicity at 70.5 h is -8.07%.
`COc1ccc2c(=O)n(CC3CCCN(C)C3)ccc2c1OC` (configuration not stated): the cytotoxicity at 70.5 h was 10.5%.
With `Cc1nn(C2CCCC2)c2nc(C(C)(C)CN3CCN(C)CC3)[nH]c12`, the cytotoxicity at 70.5 h was -2.47%.
`CC(C)c1nccn1C(C)C(=O)N1CCN(c2ccccc2Cl)CC1` (configuration not stated): the cytotoxicity at 70.5 h was -4.99%.
As for `CCCN1CCN(C(=O)c2cc[nH]n2)[C@H]2CS(=O)(=O)C[C@H]21`, the cytotoxicity at 70.5 h was -11.3%.
With `O=C(O)c1cc(C2=CCCCC2)cc(S(=O)(=O)NCc2ccccn2)c1`, the cytotoxicity at 70.5 h was -8.44%.
Regarding `CC(C)c1nnc(N2C[C@@H]3CC[C@H](C2)N(CC2CCC2)C3)s1`, the cytotoxicity at 70.5 h was -2.56%.
To `CC(C)c1ncc(CN2C[C@@H](CN3CCCC3)[C@@H](CO)C2)cn1` belongs 0.637%.
Take `COc1cc(N2C[C@@H]3CC[C@H](C2)N(CC2CCC2)C3=O)ncn1`: the cytotoxicity at 70.5 h is -3.49%.
In the case of `O=C1CCN(Cc2cnc3c(-c4ccccc4)cnn3c2)CCN1`, the cytotoxicity at 70.5 h is -9.5%.
Regarding `Cc1ccc(OCC2CCCN(c3nc(CO)cs3)C2)cc1` (configuration not stated), the cytotoxicity at 70.5 h is -0.763%.
Regarding `O=C(NCc1cnn2cccnc12)c1cccc(CC2CCNCC2)c1`, the cytotoxicity at 70.5 h turned out to be 5.06%.
With `CC(C)=CCCC(C)CN1CCC(n2cc(CO)nn2)CC1` (configuration not stated), the cytotoxicity at 70.5 h is -4.45%.
On to `CN(CC(=O)N1CCOCC(CO)C1)Cc1ccc(F)cc1` (configuration not stated), for which the cytotoxicity at 70.5 h is -12.7%.
On to `O=C(C1CCOC1)N1CCC(Cn2cc(-c3ccsc3)nn2)CC1` (configuration not stated), for which the cytotoxicity at 70.5 h is -11.1%.
With `COc1ncccc1-c1ncccc1NC(=O)C(C)C`, the cytotoxicity at 70.5 h is -6.31%.
Regarding `CCn1c(CC2CCN(S(=O)(=O)N3CCCCC3)CC2)nn(C)c1=O`, the cytotoxicity at 70.5 h was -3.16%.
`O=C(N1CCCC1)N1CCCC(c2nccn2Cc2ccncc2)C1` (configuration not stated): the cytotoxicity at 70.5 h was -8.72%.
In the case of `Cc1nnc(NC(=O)N2CCN(Cc3ccc(F)cc3)C(=O)C2)s1`, the cytotoxicity at 70.5 h is 1.21%.
In the case of `CN(C)c1nc(-c2ccncc2)nc2c1CCN(C(=O)[C@H](N)CO)C2`, the cytotoxicity at 70.5 h is -6.08%.
Turning to `Cc1ccc(C(=O)N2CCC(c3nccn3C(C)C)CC2)c(=O)[nH]1`, the cytotoxicity at 70.5 h was -6.37%.
Consider `O=C(O)C1(n2cccn2)CCN(c2nc(-c3ccccc3)no2)CC1`, for which the cytotoxicity at 70.5 h was 0.502%.
To `O=C(NCCc1ccccc1)c1cn(CCNCc2cccnc2)nn1` belongs -6.19%; to `CCCN1CCN(Cc2cn(CCC(N)=O)c3ccccc23)CC1`, -3.42%; to `Cc1cccnc1C(Nc1nccc(C2CCCC2)n1)C1CC1` (configuration not stated), 0.357%.
The same measure for `CCC(=O)c1ccc(OCC(=O)NC(C)c2nnc(C)[nH]2)cc1` (configuration not stated): -3.79%.
